According to article PMC3346935 (2012):
Residues, ends and D or L forms follow the SMILES beside them.

Columns and labels:
[1] = tested on: RNA 44 (RNA, aptamer) GGCAAGUACUCUGACGCUAGGCAGCGGCGAGGGAAGUUGGAGCUUAGACCAGUUAGGAGCUGGAGACCAGGCAGUCGGCGUAGAGGAGGACAGCG; assay: affinity column elution; details: 600 mM NaCl, 5 mM MgCl2, 5 mM CaCl2; 50 mM HEPES pH 7.0
[2] = tested on: RNA 7 (RNA, aptamer) GGCAAGUACUCUGACGCAGAUGGAAGUACCUUUGAACUGGGGGAGAAUGGUUAUGAGAAUCUAGCGAAGCCGGAGGUGCGUAGAGGAGGACAGCG; assay: isocratic affinity elution from His–Phe–Sepharose; details: 600 mM NaCl, 5 mM MgCl2, 5 mM CaCl2; 50 mM HEPES pH 7.0
[3] = tested on: RNA 8 (RNA, aptamer) GGCAAGUACUCUGACGCAGUGGAAGUUAUGUGUAUGCGGUAGAUAGGUAACGUUCUGUCAUAGGAAGGUACUAUCGUGCGUAGAGGAGGACAGCG; assay: isocratic affinity elution from His–Phe–Sepharose; details: 600 mM NaCl, 5 mM MgCl2, 5 mM CaCl2; 50 mM HEPES pH 7.0
[4] = tested on: RNA 25 (RNA, aptamer) GGCAAGUACUCUGACGCCGAAGCCAGCCGGCGAUUGGGAACGACGGAAUUCCUCACUUCUGUUAAAGGUCAACCAGGGCGUAGAGGAGGACAGCG; assay: isocratic affinity elution from His–Phe–Sepharose; details: 600 mM NaCl, 5 mM MgCl2, 5 mM CaCl2; 50 mM HEPES pH 7.0
[5] = tested on: RNA 40 (RNA, aptamer) GGCAAGUACUCUGACGCAAGGGUAGAUAUGCGUAUAUGCAGAUCCCAAAUAAAGGACGAAUUUAGUACGGGGGGUGUGCGUAGAGGAGGACAGCG; assay: isocratic affinity elution from His–Phe–Sepharose; details: 600 mM NaCl, 5 mM MgCl2, 5 mM CaCl2; 50 mM HEPES pH 7.0
[6] = tested on: RNA 6 (RNA, aptamer) GGCAAGUACUCUGACGCCGGUGGCGCAGACAGAUUUCCAGUAUGGCACGGACCGGAGAGGGAAGGAUGACAGACGUGGCGUAGAGGAGGACAGCG; assay: elution from His–Phe–Sepharose by free ligand; details: 600 mM NaCl, 5 mM MgCl2, 5 mM CaCl2; 50 mM HEPES pH 7.0; 1.5 mM dipeptide
[7] = tested on: RNA 11 (RNA, aptamer) GGCAAGUACUCUGACGCGAGGGUGGAUACGUGUAUGCGGUUACAUCUGUGGUUUCUAAAAGAGCAAGCCGAUGUGGCGUAGAGGAGGACAGCG; assay: elution from His–Phe–Sepharose by free ligand; details: 600 mM NaCl, 5 mM MgCl2, 5 mM CaCl2; 50 mM HEPES pH 7.0; 1.5 mM dipeptide
[8] = tested on: RNA 12 (RNA, aptamer) GGCAAGUACUCUGACGCGUGCUGCGGGCCGUUCAUAGUGGACGGGGUAGACAGAGAACCUUAGACCAAGGUAUCGGCGCGUAGAGGAGGACAGCG; assay: elution from His–Phe–Sepharose by free ligand; details: 600 mM NaCl, 5 mM MgCl2, 5 mM CaCl2; 50 mM HEPES pH 7.0; 1.5 mM dipeptide
[9] = tested on: RNA 13 (RNA, aptamer) GGCAAGUACUCUGACGCCUGAUGUGAUGGCCUUGGUCGAAGCGGGAUCCGACAGCUACUAUAGAGGUGUUGUCGAGGGCGUAGAGGAGGACAGCG; assay: elution from His–Phe–Sepharose by free ligand; details: 600 mM NaCl, 5 mM MgCl2, 5 mM CaCl2; 50 mM HEPES pH 7.0; 1.5 mM dipeptide
[10] = tested on: RNA 20 (RNA, aptamer) GGCAAGUACUCUGACGCGGAUGGGCCACAACGGAUCAGACGACAGGCAUUCUUUGAAGGAAAGAUCCCAGCAGAGCGGCGUAGAGGAGGACAGCG; assay: elution from His–Phe–Sepharose by free ligand; details: 600 mM NaCl, 5 mM MgCl2, 5 mM CaCl2; 50 mM HEPES pH 7.0; 1.5 mM dipeptide
[11] = tested on: RNA 22 (RNA, aptamer) GGCAAGUACUCUGACGCGAAAUGUACAUGGCGUUAAAGUAGACGCAGGAUUAAGUGUGCUGUGGAGUCGAAACGCGGGCGUAGAGGAGGACAGCG; assay: elution from His–Phe–Sepharose by free ligand; details: 600 mM NaCl, 5 mM MgCl2, 5 mM CaCl2; 50 mM HEPES pH 7.0; 1.5 mM dipeptide
[12] = tested on: RNA 23 (RNA, aptamer) GGCAAGUACUCUGACGCGGAUGGGCCAACGGCGAGCGUCGAAGGAGCUUAGUACCGAAGCAACGCAAGCGUAGAGCGGCGUAGAGGAGGACAGCG; assay: elution from His–Phe–Sepharose by free ligand; details: 600 mM NaCl, 5 mM MgCl2, 5 mM CaCl2; 50 mM HEPES pH 7.0; 1.5 mM dipeptide
[13] = tested on: RNA 24 (RNA, aptamer) GGCAAGUACUCUGACGCCCUGAGAGCGUAAUGUGACGGACAGUCGCACUGGAGGAGGAGGAAGUGAUGCAUCGAUCGGCGUAGAGGAGGACAGCG; assay: elution from His–Phe–Sepharose by free ligand; details: 600 mM NaCl, 5 mM MgCl2, 5 mM CaCl2; 50 mM HEPES pH 7.0; 1.5 mM dipeptide
[14] = tested on: RNA 33 (RNA, aptamer) GGCAAGUACUCUGACGCGCCGAAAUGGGAGGGGUGGCGUUAACCGGCAAAGCUGCACGGGCGAUGAAGAAACGCGGGGCGUAGAGGAGGACAGCG; assay: elution from His–Phe–Sepharose by free ligand; details: 600 mM NaCl, 5 mM MgCl2, 5 mM CaCl2; 50 mM HEPES pH 7.0; 1.5 mM dipeptide
[15] = tested on: RNA 35 (RNA, aptamer) GGCAAGUACUCUGACGCGUGGGAAGAUACGUGUAUACGCUAACAUACGGCAAGGUGAGUAGCCGGAAGUAGCAUGUGGCGUAGAGGAGGACAGCG; assay: elution from His–Phe–Sepharose by free ligand; details: 600 mM NaCl, 5 mM MgCl2, 5 mM CaCl2; 50 mM HEPES pH 7.0; 1.5 mM dipeptide
[16] = tested on: RNA 39 (RNA, aptamer) GGCAAGUACUCUGACGCGGAUGGGCCACCAAAGCACCGAAGGGUAGGAGCCACUAACUUGCGGUGAAUGGAAGAGCGGCGUAGAGGAGGACAGCG; assay: elution from His–Phe–Sepharose by free ligand; details: 600 mM NaCl, 5 mM MgCl2, 5 mM CaCl2; 50 mM HEPES pH 7.0; 1.5 mM dipeptide

Row | SMILES | binding [1] | K D [2] [mM] | K D [3] [mM] | K D [4] [mM] | K D [5] [mM] | binding [6] | binding [7] | binding [8] | binding [9] | binding [10] | binding [11] | binding [12] | binding [13] | binding [14] | binding [15] | binding [16]
1 | N[C@@H](Cc1ccccc1)C(=O)O | yes | 22 | > 34 | > 727 | > 227 | – | – | – | – | – | – | – | – | – | – | –
2 | N[C@@H](Cc1c[nH]cn1)C(=O)NCC(=O)O (H-His-Gly-OH) | – | 10.5 | 5.4 | 8.2 | 3.4 | – | – | – | – | – | – | – | – | – | – | –
3 | N[C@@H](Cc1cnc[nH]1)C(=O)N[C@@H](Cc1ccccc1)C(=O)O (H-His-Phe-OH) | yes | 0.478 ± 0.061 | 0.102 ± 0.033 | 0.036 ± 0.002 | 0.077 ± 0.007 | yes | yes | yes | yes | yes | yes | yes | yes | yes | yes | yes

The next lines start with the values.

Row | binding [1] | K D [2] [mM] | K D [3] [mM] | K D [4] [mM] | K D [5] [mM] | binding [6] | binding [7] | binding [8] | binding [9] | binding [10] | binding [11] | binding [12] | binding [13] | binding [14] | binding [15] | binding [16] | SMILES
4 | no | > 119 | > 34 | > 727 | > 227 | – | – | – | – | – | – | – | – | – | – | – | N[C@@H](Cc1cnc[nH]1)C(=O)O
5 | – | 31.6 | > 34 | > 727 | 9.3 | – | – | – | – | – | – | – | – | – | – | – | NCC(=O)N[C@@H](Cc1ccccc1)C(=O)O (H-Gly-Phe-OH)
